Where no end group is shown, it is not given here.
What was measured:
[1] = system: Candida albicans (C. albicans, ATCC90028); format: cell-based; conditions: 1 × 10^6 CFU/mL, PDB, 12 h, peptide 0-20 μM, absorbance at 600 nm, n = 5
Excerpt: (§1) Pseudomonas aeruginosa (P. aeruginosa, ATCC27853), Methicillin-Resistant Staphylococcus aureus (MRSA, 2104270609, clinically isolated strain), Escherichia coli (E. coli, ATCC25922), Klebsiella pneumoniae (K. pneumoniae, ATCC700603), Enterococcus faecalis (E. faecalis, ATCC29212), Candida krusei (C. krusei, ATCC6258), Candida albicans (C. albicans, ATCC90028), and Candida glabrata (C. glabrata, ATCCMYA-2950) were obtained from the First Affiliated Hospital of Xi’an Jiaotong University. Bacterial strains were cultured in MHA or MHB. Fungal strains were cultured in PDA or PDB.
(§2) Strains were incubated in MHB or PDB. After growing for 12–16 h at 37 °C, 200 rpm, 100 μL of 1 × 10^6 CFU/mL of the strains was seeded into 96-well plates and incubated with fresh culture medium containing various antimicrobial peptides (peptide concentration: 0, 0.5, 1.0, 2.0, 3.0, 5.0, 10, 15 or 20 μM) for 12 h. Each concentration was repeated five times. Absorbance at 600 nm was measured using the Multilabel Reader Varioskan Flash (Thermo Fisher). […] (1)

[2] = system: Candida glabrata (C. glabrata, ATCCMYA-2950); format: cell-based; conditions: 1 × 10^6 CFU/mL, PDB, 12 h, peptide 0-20 μM, absorbance at 600 nm, n = 5
Excerpt: as §1, §2

[3] = system: Candida krusei (C. krusei, ATCC6258); format: cell-based; conditions: 1 × 10^6 CFU/mL, PDB, 12 h, peptide 0-20 μM, absorbance at 600 nm, n = 5
Excerpt: as §1, §2

[4] = system: Enterococcus faecalis (E. faecalis, ATCC29212); format: cell-based; conditions: 1 × 10^6 CFU/mL, MHB, 12 h, peptide 0-20 μM, absorbance at 600 nm, n = 5
Excerpt: as §1, §2

[5] = system: Escherichia coli (E. coli, ATCC25922); format: cell-based; conditions: 1 × 10^6 CFU/mL, MHB, 12 h, peptide 0-20 μM, absorbance at 600 nm, n = 5
Excerpt: as §1, §2

[6] = system: Klebsiella pneumoniae (K. pneumoniae, ATCC700603); format: cell-based; conditions: 1 × 10^6 CFU/mL, MHB, 12 h, peptide 0-20 μM, absorbance at 600 nm, n = 5
Excerpt: as §1, §2

[7] = system: Methicillin-Resistant Staphylococcus aureus (MRSA, 2104270609, clinically isolated strain); format: cell-based; conditions: 1 × 10^6 CFU/mL, MHB, 12 h, peptide 0-20 μM, absorbance at 600 nm, n = 5
Excerpt: as §1, §2

[8] = system: Pseudomonas aeruginosa (P. aeruginosa, ATCC27853); format: cell-based; conditions: 1 × 10^6 CFU/mL, MHB, 12 h, peptide 0-20 μM, absorbance at 600 nm, n = 5
Excerpt: as §1, §2

C. albicans = conditions: mouse, in vivo, 2 h, 50 μM
Description: (§3) The scalded mice models combined with SSTIs by MRSA or C. albicans were constructed. Fifty normal male Kunming mice (5–6 weeks old) weighing ~25 g were anesthetized by isoflurane using a small animal anesthesia machine (R640, RWD Life Science, China). After skin preparation and disinfection, a custom-made circular iron (diameter: 8 mm) (shown in Figure S4) was applied to both sides of the spine of the mice for 10 s at 300 °C, resulting in four scalded wounds. Mice were injected subcutaneously with 5 mg/kg meloxicam (Aladdin, Shanghai, China) for four days (once per day) after scalding for pain relief. Two days after scalding, the skin tissues of the scalded areas were removed carefully, and about 30 μL of 1 × 10^7 CFU/mL of MRSA or C. albicans was applied evenly onto the surfaces of the wounds. The mice were returned to the original feeding environment after the microbial fluid was completely absorbed (1.5–2 h), with two mice per cage. Corncob granules with SPF level were used as padding.
(§4) Two days after microbe inoculating, the scalded wounds of each mouse were divided into four groups randomly. […] The mice were returned to the original feeding environment after the solutions were completely absorbed. The treatment lasted for 12–16 days. Photographs of the wound areas were taken every two days using an iPhone 11 and the wound areas were measured every two days using Image J software (152-win-java8, Bethesda, MD, USA). The average wound areas on day two were used as the reference (100% unhealed) to normalized wound areas. Skin tissues of the wound areas were removed carefully at different time points (n = 5 for each time point) and weighted in a sterile environment. For MRSA infection, 10 mg of the wound tissues was dispersed into 1000 μL of sterile saline solution and the tissue solution was ground into suspension in a tissuelyser (Tissuelyser LT, Servicebio). Then, the tissue suspension was diluted with sterile saline solution 10 times and plated on MHA with a sample volume of 50 μL. For C. albicans infection, 10 mg of the wound tissues was dispersed into 200 μL of sterile saline solution and the tissue solution was also ground into suspension in the tissuelyser. The tissue suspension was then plated on PDA directly with a sample volume of 20 μL. After culturing overnight, the colonies were counted using Image J software or human eyes. In addition, the skin tissues of the wound area were removed carefully at different time points and dispersed into a 4% paraformaldehyde solution for further use.
(§5) The hematoxylin and eosin staining in this study was carried out by Servicebio (Wuhan, China). Briefly, the obtained skin tissues were soaked in 4% paraformaldehyde solution (Beyotime, China) and fixed for more than 24 h. Then, they were dehydrated and embedded with paraffin, and tissue sections having thicknesses of 4 μm were prepared. After deparaffinization and rehydration, hematoxylin and eosin staining was performed.

MRSA = conditions: mouse, in vivo, 2 h, 50 μM
Description: as §3, §4, §5

rat erythrocytes = conditions: rat RBC suspension in PBS, up to 100 μM, 37 °C, 1 h, OD 576 nm, 1% Triton X-100 = 100%, six replicates
Description: The hemolysis assay was carried out as reported in the literature [22]. Briefly, healthy male rats weighing ~300 g were anesthetized by isoflurane using a small animal anesthesia machine (R640, RWD Life Science, Shenzhen, China). Fresh rat blood samples were drawn from the ventral main vein and collected into an ethylene diamine tetraacetic acid (EDTA) treated anticoagulation tube. The collected blood samples were centrifuged at 4 °C, 350× g for five minutes. Red blood cells (RBCs) were pipetted and washed three times with cold PBS. […] These tubes were incubated at 37 °C, 1000 rpm in a BG200 dry bath incubator (Hangzhou LongGene Scientific Instruments Co., Ltd., Hangzhou, China) for 1 h. Then, the tubes were centrifuged at 350× g for 5 min. Next, 20 μL of the supernatants was mixed with 180 μL of PBS. Afterwards, 100 μL of the mixture was transferred into 96-well plates and hemoglobin release was monitored at 576 nm using a Multilabel Reader Varioskan Flash (Thermo Fisher). The RBC suspension in PBS was used as a negative control. The absorbance of the wells containing 1% Triton X-100 was taken as 100% hemolysis. The percentage of hemolysis was calculated using this formula:Hemolysis (%) = [(OD576 nm of the peptide solution − OD576 nm of the negative control)/(OD576 nm of the positive control − OD576 nm of the negative control)] × 100. (3) […]

Sequence: GFLFKLIPKAIKKLISKFK [GK-19]
- Minimum inhibitory concentration (MIC), C. albicans [1]: 10 µM
- Minimum inhibitory concentration (MIC), C. glabrata [2]: 10 µM
- Minimum inhibitory concentration (MIC), C. krusei [3]: 5 µM
- Minimum inhibitory concentration (MIC), E. faecalis [4]: 3 µM
- Minimum inhibitory concentration (MIC), E. coli [5]: 3 µM
- Minimum inhibitory concentration (MIC), K. pneumoniae [6]: 5 µM
- Minimum inhibitory concentration (MIC), MRSA [7]: 5 µM
- Minimum inhibitory concentration (MIC), P. aeruginosa [8]: 5 µM
- C. albicans suppressed (inhibition rate) at day eight compared with saline solution groups (C. albicans): more than 97%
- MRSA suppressed (inhibition rate) at day eight compared with saline solution groups (MRSA): more than 95%
- hemolytic activity (rat erythrocytes): negligible hemolytic activity
